PubChem BioAssay (NCI)
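48-hour exposure; five concentrations; linearly interpolated endpoints. GI50: concentration for 50% inhibition of growth. The concentration for full growth arrest is given as TGI.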

tested on: EKVX NSCLC; assay: growth of human tumour cells (NCI), 48 h

Q: Which TGI does the source give for `C=C1C(=O)OC2/C=C(\COC(C)=O)CCC(OC(C)=O)C3=CC(OC3=O)C12` (configuration not stated) here?
A: 34.3 µM

Q: Which results are given for `Cc1ccc2[nH]c(O)c(N=Nc3ccc(S(N)(=O)=O)cc3)c2c1`?
A: GI50: > 25 µM; TGI: > 25 µM

Q: How did the TGI turn out when `C/C(N=NC(=S)N(C)C)=C1\C=CC=CN1O` was run?
A: > 100 µM

Q: `C=C1CCC(CC[C@@H]2CC[C@]3(OC2)O[C@@]2(O)CC[C@]3(C)OC2(C)C)C(C)(C)[C@H]1C/C=C1/C(=O)OC[C@@H]1O` (some centres not stated) was tested. Which TGI did it give?
A: 11.3 µM

Q: How did the TGI turn out when `C[C@]12CC[C@@H]3c4cc(OCC(F)(F)F)c(O)cc4/C(=N/O)C[C@H]3[C@@H]1CC[C@@H]2O` was run?
A: 28.9 µM

Q: `COc1cc(/C=C/c2ccc(OC)c(OC)c2)cc(OC)c1` was tested. Which TGI did it give?
A: > 100 µM

Q: What does the source list for `CC1(C)[C@@H](OC(N)=O)[C@H]2O[C@H]2[C@]2(C=O)[C@H]3CC[C@]4(C)[C@@H](c5ccc(=O)oc5)[C@@H](Cl)C[C@]4(O)C3=CC[C@@H]12`?
A: GI50: 0.00472 µM; TGI: 0.0102 µM

Q: Which results are given for `CCCCON(OC(=O)c1ccc2ccc3cccc4ccc1c2c34)C(C)=O`?
A: GI50: 27.3 µM; TGI: > 100 µM

Q: `Clc1ccc(C=Nc2ccc3c(c2)Cc2ccccc2-3)c(Cl)c1` was tested. Which TGI did it give?
A: > 100 µM

Q: Which GI50 does the source give for `CN(C)CCN1C(=O)c2ccc3c4c(ccc(c24)C1=O)C(=O)N(CCN=C=S)C3=O` here?
A: 0.396 µM

Q: What about the TGI of the same compound?
A: 1.5 µM

Q: `COc1ccc(/C=C/c2cc(OC)cc(=O)o2)cc1` was tested. Which TGI did it give?
A: > 100 µM

Q: `COc1cccc2c(=O)c3c(sc12)c(N1CCNCC1)nc1ccccc13` was tested. Which GI50 did it give?
A: 1.62 µM

Q: And the TGI?
A: 3.17 µM

Q: Which results are given for `CC(=O)N[C@H]1CSSC[C@@H](C(N)=O)NC(=O)[C@H](C(C)C)NC(=O)[C@H](C)NC(=O)[C@H](Cc2cnc[nH]2)NC1=O`?
A: GI50: > 100 µM; TGI: > 100 µM

Q: Which TGI does the source give for `O=C1CC2c3ccccc3CCC2c2ccccc21` (configuration not stated) here?
A: 15.3 µM

Q: Which GI50 does the source give for `CCCCCCCCCCCCCCCCCCOc1ccccc1CC(=O)OCC[N+]1(C)CCCC1` here?
A: 3.38 µM

Q: What about the TGI of the same compound?
A: 16.4 µM

Q: With `CC(=O)C(=CN1CCN(C(=O)c2ccco2)C1=S)C(C)=O` as the compound, how does the GI50 read?
A: 11.2 µM

Q: And the TGI?
A: 28.6 µM

tested on: SN12C renal; assay: growth of human tumour cells (NCI), 48 h

Q: With `O=S(=O)(Nc1cc(Sc2cccc3cccnc23)c(O)c2ccccc12)c1ccccc1` as the compound, how does the GI50 read?
A: 0.798 µM

Q: What about the TGI of the same compound?
A: 3.6 µM

Q: How did the GI50 turn out when `CN(C)C(=O)[C@H](O)[C@H](Cc1ccccc1)NC(=O)c1cc2cc(Cl)ccc2[nH]1` was run?
A: 23.5 µM

Q: And the TGI?
A: > 95.1 µM

Q: What does the source list for `CC(C)(C[C@H]1CN(S(=O)(=O)c2cccc(C(F)(F)F)c2)c2cc(-c3cc(F)cc(OC(F)F)c3)ccc2O1)C(=O)O`?
A: GI50: 11.3 µM; TGI: 28 µM

Q: Which results are given for `Cc1ccc(-c2nc3ccc(Cl)cc3c(=O)n2N2C(=O)CSC2c2ccccc2Cl)cc1` (configuration not stated)?
A: GI50: 11.8 µM; TGI: > 100 µM

Q: How did the TGI turn out when `O=C(O)C1C(Br)(c2ccccc2)C1(Br)c1ccccc1` (configuration not stated) was run?
A: > 100 µM

Q: `C#Cc1c(I)n(C2OC(CO[Si](C)(C)C(C)(C)C)C3OC(C)(C)OC32)c(=O)[nH]c1=O` (configuration not stated) was tested. Which GI50 did it give?
A: 18.5 µM

Q: What about the TGI of the same compound?
A: 37.6 µM

Q: With `ClCC[N+]12CC[N+](CCCl)(CC1)C2` as the compound, how does the TGI read?
A: > 100 µM

Q: Which results are given for `COc1cc(C(=O)c2cc(C)c3[nH]c4ccc(C)cc4c3c2C)cc(OC)c1OC`?
A: GI50: < 0.01 µM; TGI: > 100 µM

Q: Which TGI does the source give for `C=C1C(=O)OC2/C=C(\COC(C)=O)CCC(OC(C)=O)C3=CC(OC3=O)C12` (configuration not stated) here?
A: 18.9 µM

Q: With `Cc1ccc2[nH]c(O)c(N=Nc3ccc(S(N)(=O)=O)cc3)c2c1` as the compound, how does the GI50 read?
A: 15.4 µM

Q: And the TGI?
A: > 25 µM

Q: With `C/C(N=NC(=S)N(C)C)=C1\C=CC=CN1O` as the compound, how does the TGI read?
A: > 100 µM

Q: Which TGI does the source give for `C=C1CCC(CC[C@@H]2CC[C@]3(OC2)O[C@@]2(O)CC[C@]3(C)OC2(C)C)C(C)(C)[C@H]1C/C=C1/C(=O)OC[C@@H]1O` (some centres not stated) here?
A: 8.03 µM

Q: `C[C@]12CC[C@@H]3c4cc(OCC(F)(F)F)c(O)cc4/C(=N/O)C[C@H]3[C@@H]1CC[C@@H]2O` was tested. Which TGI did it give?
A: 48.3 µM

Q: `COc1cc(/C=C/c2ccc(OC)c(OC)c2)cc(OC)c1` was tested. Which TGI did it give?
A: 96.6 µM

Q: With `CC1(C)[C@@H](OC(N)=O)[C@H]2O[C@H]2[C@]2(C=O)[C@H]3CC[C@]4(C)[C@@H](c5ccc(=O)oc5)[C@@H](Cl)C[C@]4(O)C3=CC[C@@H]12` as the compound, how does the GI50 read?
A: 0.0056 µM

Q: And the TGI?
A: 0.0173 µM

Q: Which results are given for `CCCCON(OC(=O)c1ccc2ccc3cccc4ccc1c2c34)C(C)=O`?
A: GI50: 19.6 µM; TGI: 39.2 µM

Q: For `Clc1ccc(C=Nc2ccc3c(c2)Cc2ccccc2-3)c(Cl)c1`, which TGI is on record?
A: > 100 µM

Q: What does the source list for `CN(C)CCN1C(=O)c2ccc3c4c(ccc(c24)C1=O)C(=O)N(CCN=C=S)C3=O`?
A: GI50: 0.0364 µM; TGI: 0.177 µM

Q: How did the TGI turn out when `COc1ccc(/C=C/c2cc(OC)cc(=O)o2)cc1` was run?
A: > 100 µM

Q: How did the GI50 turn out when `O=C(/C=C\c1ccc(NCc2ccc(C(=O)O)cc2)cc1)CCl` was run?
A: 11.2 µM

Q: And the TGI?
A: 23.7 µM

Q: Which GI50 does the source give for `COc1cccc2c(=O)c3c(sc12)c(N1CCNCC1)nc1ccccc13` here?
A: 1.54 µM

Q: What about the TGI of the same compound?
A: 3.06 µM

Q: For `COc1cc2[nH]c(C(=O)c3cc(OC)c(OC)c(OC)c3)c(N)c2cc1C#CC1CC1`, which GI50 is on record?
A: 7.69 µM

Q: What about the TGI of the same compound?
A: > 100 µM

Q: `O=c1cc(NC2CCN(CCCc3ccccc3)CC2)c2cc(Cl)ccc2o1` was tested. Which GI50 did it give?
A: 13 µM

Q: And the TGI?
A: 28.2 µM

Q: Which GI50 does the source give for `CC(=O)N[C@H]1CSSC[C@@H](C(N)=O)NC(=O)[C@H](C(C)C)NC(=O)[C@H](C)NC(=O)[C@H](Cc2cnc[nH]2)NC1=O` here?
A: > 100 µM

Q: What about the TGI of the same compound?
A: > 100 µM

Q: What does the source list for `O=C1Nc2ccc(F)cc2/C1=C/c1ccc[nH]1`?
A: GI50: > 25 µM; TGI: > 25 µM

Q: What does the source list for `CCCCCCCCCCCCCCCCCCOc1ccccc1CC(=O)OCC[N+]1(C)CCCC1`?
A: GI50: 1.94 µM; TGI: 4.27 µM

Q: `CC(=O)C(=CN1CCN(C(=O)c2ccco2)C1=S)C(C)=O` was tested. Which GI50 did it give?
A: 2.57 µM

Q: And the TGI?
A: 7.11 µM

tested on: SW-620 colon; assay: growth of human tumour cells (NCI), 48 h

Q: Which results are given for `O=S(=O)(Nc1cc(Sc2cccc3cccnc23)c(O)c2ccccc12)c1ccccc1`?
A: GI50: 1.04 µM; TGI: 11.6 µM

Q: Which results are given for `CN(C)C(=O)[C@H](O)[C@H](Cc1ccccc1)NC(=O)c1cc2cc(Cl)ccc2[nH]1`?
A: GI50: 26.4 µM; TGI: > 100 µM

Q: For `CC(C)(C[C@H]1CN(S(=O)(=O)c2cccc(C(F)(F)F)c2)c2cc(-c3cc(F)cc(OC(F)F)c3)ccc2O1)C(=O)O`, which GI50 is on record?
A: 5.02 µM

Q: And the TGI?
A: 21.5 µM

Q: With `Cc1ccc(-c2nc3ccc(Cl)cc3c(=O)n2N2C(=O)CSC2c2ccccc2Cl)cc1` (configuration not stated) as the compound, how does the GI50 read?
A: > 100 µM

Q: And the TGI?
A: > 100 µM

Q: Which TGI does the source give for `O=C(O)C1C(Br)(c2ccccc2)C1(Br)c1ccccc1` (configuration not stated) here?
A: > 100 µM

Q: What does the source list for `C#Cc1c(I)n(C2OC(CO[Si](C)(C)C(C)(C)C)C3OC(C)(C)OC32)c(=O)[nH]c1=O` (configuration not stated)?
A: GI50: 2.36 µM; TGI: 6.42 µM

Q: For `ClCC[N+]12CC[N+](CCCl)(CC1)C2`, which TGI is on record?
A: > 100 µM

Q: How did the GI50 turn out when `COc1cc(C(=O)c2cc(C)c3[nH]c4ccc(C)cc4c3c2C)cc(OC)c1OC` was run?
A: < 0.01 µM

Q: And the TGI?
A: > 100 µM

Q: `C=C1C(=O)OC2/C=C(\COC(C)=O)CCC(OC(C)=O)C3=CC(OC3=O)C12` (configuration not stated) was tested. Which TGI did it give?
A: 4.47 µM

Q: `Cc1ccc2[nH]c(O)c(N=Nc3ccc(S(N)(=O)=O)cc3)c2c1` was tested. Which GI50 did it give?
A: 10.2 µM

Q: And the TGI?
A: > 25 µM

Q: `C/C(N=NC(=S)N(C)C)=C1\C=CC=CN1O` was tested. Which TGI did it give?
A: > 100 µM

Q: `C=C1CCC(CC[C@@H]2CC[C@]3(OC2)O[C@@]2(O)CC[C@]3(C)OC2(C)C)C(C)(C)[C@H]1C/C=C1/C(=O)OC[C@@H]1O` (some centres not stated) was tested. Which TGI did it give?
A: 12.6 µM

Q: Which results are given for `C[C@]12CC[C@@H]3c4cc(OCC(F)(F)F)c(O)cc4/C(=N/O)C[C@H]3[C@@H]1CC[C@@H]2O`?
A: GI50: 0.0403 µM; TGI: > 48.1 µM

Q: For `COc1cc(/C=C/c2ccc(OC)c(OC)c2)cc(OC)c1`, which TGI is on record?
A: > 100 µM

Q: Which GI50 does the source give for `CC1(C)[C@@H](OC(N)=O)[C@H]2O[C@H]2[C@]2(C=O)[C@H]3CC[C@]4(C)[C@@H](c5ccc(=O)oc5)[C@@H](Cl)C[C@]4(O)C3=CC[C@@H]12` here?
A: 0.00529 µM

Q: And the TGI?
A: 0.0115 µM

Q: For `CCCCON(OC(=O)c1ccc2ccc3cccc4ccc1c2c34)C(C)=O`, which GI50 is on record?
A: 18.5 µM

Q: And the TGI?
A: 39.1 µM

Q: Which TGI does the source give for `Clc1ccc(C=Nc2ccc3c(c2)Cc2ccccc2-3)c(Cl)c1` here?
A: > 100 µM

Q: What does the source list for `CN(C)CCN1C(=O)c2ccc3c4c(ccc(c24)C1=O)C(=O)N(CCN=C=S)C3=O`?
A: GI50: 0.0269 µM; TGI: 0.155 µM

Q: `COc1ccc(/C=C/c2cc(OC)cc(=O)o2)cc1` was tested. Which TGI did it give?
A: > 100 µM

Q: With `O=C(/C=C\c1ccc(NCc2ccc(C(=O)O)cc2)cc1)CCl` as the compound, how does the GI50 read?
A: 3.14 µM

Q: What about the TGI of the same compound?
A: 11.6 µM

Q: What does the source list for `COc1cccc2c(=O)c3c(sc12)c(N1CCNCC1)nc1ccccc13`?
A: GI50: 1.49 µM; TGI: 3.09 µM

Q: Which GI50 does the source give for `COc1cc2[nH]c(C(=O)c3cc(OC)c(OC)c(OC)c3)c(N)c2cc1C#CC1CC1` here?
A: 2.9 µM

Q: What about the TGI of the same compound?
A: > 100 µM

Q: What does the source list for `O=c1cc(NC2CCN(CCCc3ccccc3)CC2)c2cc(Cl)ccc2o1`?
A: GI50: 15 µM; TGI: 30.5 µM

Q: For `O=C1CC2c3ccccc3CCC2c2ccccc21` (configuration not stated), which TGI is on record?
A: > 100 µM

Q: For `O=C1Nc2ccc(F)cc2/C1=C/c1ccc[nH]1`, which GI50 is on record?
A: 24.6 µM

Q: And the TGI?
A: > 25 µM

Q: Which GI50 does the source give for `CC(=O)C(=CN1CCN(C(=O)c2ccco2)C1=S)C(C)=O` here?
A: 14.6 µM

Q: And the TGI?
A: 31.3 µM
